In patent publication US20260138961A1, “MODULATORS OF MITOCHONDRIAL DNA REPLICATION” (Pretzel Therapeutics, Inc., priority 2022, published 2026):

target: T1, POLγ W748S + E1143G (Homo sapiens, UniProt P54098, E1143G/W748S); experiment: DNA polymerization assay, W748S + E1143G mutant; format: biochemical; details: stimulation of polymerase activity, primed M13mp18 ssDNA, 37° C. 2 hours
T1 sequence (P54098 1-1239 W748S/E1143G): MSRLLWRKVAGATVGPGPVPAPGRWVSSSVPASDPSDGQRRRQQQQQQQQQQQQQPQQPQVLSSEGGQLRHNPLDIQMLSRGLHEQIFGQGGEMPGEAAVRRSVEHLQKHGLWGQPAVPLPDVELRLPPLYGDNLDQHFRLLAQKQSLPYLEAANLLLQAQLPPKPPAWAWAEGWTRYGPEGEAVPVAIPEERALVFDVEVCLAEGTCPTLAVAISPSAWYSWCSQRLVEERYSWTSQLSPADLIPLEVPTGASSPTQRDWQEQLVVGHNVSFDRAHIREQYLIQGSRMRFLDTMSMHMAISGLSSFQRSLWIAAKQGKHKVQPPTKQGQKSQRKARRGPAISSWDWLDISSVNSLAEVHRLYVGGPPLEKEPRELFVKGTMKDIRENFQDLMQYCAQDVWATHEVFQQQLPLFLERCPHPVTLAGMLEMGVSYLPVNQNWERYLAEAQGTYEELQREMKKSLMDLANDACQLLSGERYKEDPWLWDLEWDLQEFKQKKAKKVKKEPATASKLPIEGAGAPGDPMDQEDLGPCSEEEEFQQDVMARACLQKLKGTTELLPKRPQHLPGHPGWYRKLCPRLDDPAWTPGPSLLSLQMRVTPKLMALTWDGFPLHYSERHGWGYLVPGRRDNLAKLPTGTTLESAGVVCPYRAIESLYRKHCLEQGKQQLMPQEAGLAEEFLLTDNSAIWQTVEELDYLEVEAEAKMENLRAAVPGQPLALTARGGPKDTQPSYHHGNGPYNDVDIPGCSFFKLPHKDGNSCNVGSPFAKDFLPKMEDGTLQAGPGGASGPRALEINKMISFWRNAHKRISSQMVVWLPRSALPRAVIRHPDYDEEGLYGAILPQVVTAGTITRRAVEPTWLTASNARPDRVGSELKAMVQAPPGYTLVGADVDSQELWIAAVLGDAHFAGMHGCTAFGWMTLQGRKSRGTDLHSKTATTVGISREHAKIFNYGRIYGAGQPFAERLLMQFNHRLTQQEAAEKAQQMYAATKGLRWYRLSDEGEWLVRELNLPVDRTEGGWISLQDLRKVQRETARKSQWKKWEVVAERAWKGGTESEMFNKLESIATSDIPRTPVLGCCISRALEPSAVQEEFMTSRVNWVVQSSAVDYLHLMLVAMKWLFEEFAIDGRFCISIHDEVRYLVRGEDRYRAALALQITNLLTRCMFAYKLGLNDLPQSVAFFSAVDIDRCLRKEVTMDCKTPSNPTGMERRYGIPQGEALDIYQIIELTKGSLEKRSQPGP
T1 sequence (Q9UHN1 1-485 partner): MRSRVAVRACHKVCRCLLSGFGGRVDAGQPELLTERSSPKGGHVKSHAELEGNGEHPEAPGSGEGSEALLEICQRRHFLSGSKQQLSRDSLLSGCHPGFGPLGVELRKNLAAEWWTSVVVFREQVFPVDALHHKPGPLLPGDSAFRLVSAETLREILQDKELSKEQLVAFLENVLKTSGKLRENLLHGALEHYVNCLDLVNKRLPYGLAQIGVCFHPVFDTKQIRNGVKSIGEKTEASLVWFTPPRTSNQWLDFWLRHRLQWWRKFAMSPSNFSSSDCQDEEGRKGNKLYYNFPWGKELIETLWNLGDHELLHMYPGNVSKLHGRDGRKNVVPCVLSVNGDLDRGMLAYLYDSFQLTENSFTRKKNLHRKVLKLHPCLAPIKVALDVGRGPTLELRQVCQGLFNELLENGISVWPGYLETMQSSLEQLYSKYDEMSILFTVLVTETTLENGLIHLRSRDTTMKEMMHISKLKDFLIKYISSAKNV

Row | Compound | AC50
1 | Cc1cc(S(=O)(=O)Nc2cccc(-c3ncc(C4CC4)s3)c2)c(C)cc1Cl [Example 76, 4-chloro-N-(3-(5-cyclopropylthiazol-2-yl)phenyl)-2,5-dimethylbenzenesulfonamide] | 6000 nM
2 | Cc1csc(-c2ccccc2NS(=O)(=O)c2cc(C)c(Cl)cc2C)n1 [Example 80, 4-chloro-2,5-dimethyl-N-(2-(4-methylthiazol-2-yl)phenyl)benzenesulfonamide] | > 100000 nM
3 | Cc1cc(S(=O)(=O)Nc2cccc(-c3ncc(CN(C)C)s3)c2)c(C)cc1Cl [Example 87, 4-chloro-N-(3-(5-((dimethylamino)methyl)thiazol-2-yl)phenyl)-2,5-dimethylbenzenesulfonamide] | 5000 nM
4 | Cc1cc(S(=O)(=O)Nc2cccc(-c3ncc(CO)s3)c2)c(C)cc1Cl [Example 89, 4-chloro-N-(3-(5-(hydroxymethyl)thiazol-2-yl)phenyl)-2,5-dimethylbenzenesulfonamide] | 800 nM

Other lines, results leading:

Row | AC50 | Compound
5 | 700 nM | Cc1cc(S(=O)(=O)Nc2csc(-c3ccccc3)n2)c(C)cc1Cl [Example 81, 4-chloro-2,5-dimethyl-N-(2-phenylthiazol-4-yl)benzenesulfonamide]
6 | 1000 nM | Cc1cc(S(=O)(=O)Nc2csc(-c3ccnn3C)n2)c(C)cc1Cl [Example 182, 4-chloro-2,5-dimethyl-N-(2-(1-methyl-1H-pyrazol-5-yl)thiazol-4-yl)benzenesulfonamide]
